The source of these data is patent US6391924B1, “Taurine derivatives useable in the treatment of ophthalmic disorders” (priority 1997, dated 2002).

In data set [1] the test system is frog retinas. As to conditions: in vitro; cited from earlier work.
The nature of data set [2]: solubility in water. It counts as physicochemical. As for the experimental part: The all-trans isomer of retinyliden tauret (i.e., all-trans-3,7-dimethyl-9-(2,6,6-trimehyl-1-cyclohexen-1-yl)-2,4,6,8-nonatetraen-1-imido-(N-sulfonic acid) prepared in this example has the following characterization: a) Absorbency Max […]., b) Extinction Coefficient at […] is 40200, c) upon protonation the absorbency Max shifts to 444 um, d) the Extinction Coefficient at 444 um is 40050 e) Melting Point is 115 C., -116° C. and soluability in water is 200 mg/ml.

On to `CC(C=CC1=C(C)CCCC1(C)C)=CC=CC(C)=CC=NCCS(=O)(=O)O` [retinyliden tauret, 3,7-dimethyl-9-(2,6,6-trimehyl-1-cyclohexen-1-yl)-2,4,6,8-nonatetraen-1-imido-(N-ethanesulfonic acid)], for which the photoprotective effects entry in data set [1] is given as “some photoprotective effects”.
For `CC1=C(/C=C/C(C)=C/C=C/C(C)=C/C=NCCS(=O)(=O)O)C(C)(C)CCC1` (single isomer, unassigned) [all-trans isomer of retinyliden tauret, all-trans-3,7-dimethyl-9-(2,6,6-trimehyl-1-cyclohexen-1-yl)-2,4,6,8-nonatetraen-1-imido-(N-ethanesulfonic acid)], the soluability in water in data set [2] was found to be 200 mg/mL.
